Measured values reported in ChEMBL document CHEMBL1134040, “Allyl and propargyl substituted penam sulfones as versatile intermediates toward the syntheses of new beta-lactamase inhibitors” (Bioorg Med Chem Lett, 2001).
In brackets after ≈: the same amount, converted by molar mass.

How the values were obtained:
[1] = target: Beta-lactamase (Escherichia coli K-12, UniProt P00811); assay: In vitro inhibitory concentration against AmpC enzyme
[2] = target: Metallo-beta-lactamase type 2 (Bacteroides fragilis, UniProt P25910); assay: In vitro inhibitory concentration against CCRA enzyme
[3] = target: Beta-lactamase TEM (Escherichia coli, UniProt P62593); assay: In vitro inhibitory concentration against TEM-1 enzyme
[4] = system: Escherichia coli; assay: In vitro antibacterial activity against TEM-1 producing Escherichia coli (GC2206); format: functional
[5] = system: Escherichia coli; assay: In vitro antibacterial activity against AmpC producing Escherichia coli (GC2894); format: functional

Chain of Metallo-beta-lactamase type 2 (P25910 whole entry): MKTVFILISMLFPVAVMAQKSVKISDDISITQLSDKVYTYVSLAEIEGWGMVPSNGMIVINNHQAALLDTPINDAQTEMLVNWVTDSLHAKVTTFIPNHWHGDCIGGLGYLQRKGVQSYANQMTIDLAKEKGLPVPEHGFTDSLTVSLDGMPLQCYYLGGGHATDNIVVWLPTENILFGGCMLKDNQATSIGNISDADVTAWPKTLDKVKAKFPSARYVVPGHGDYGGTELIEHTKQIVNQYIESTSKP
Chain of Beta-lactamase (P00811 whole entry): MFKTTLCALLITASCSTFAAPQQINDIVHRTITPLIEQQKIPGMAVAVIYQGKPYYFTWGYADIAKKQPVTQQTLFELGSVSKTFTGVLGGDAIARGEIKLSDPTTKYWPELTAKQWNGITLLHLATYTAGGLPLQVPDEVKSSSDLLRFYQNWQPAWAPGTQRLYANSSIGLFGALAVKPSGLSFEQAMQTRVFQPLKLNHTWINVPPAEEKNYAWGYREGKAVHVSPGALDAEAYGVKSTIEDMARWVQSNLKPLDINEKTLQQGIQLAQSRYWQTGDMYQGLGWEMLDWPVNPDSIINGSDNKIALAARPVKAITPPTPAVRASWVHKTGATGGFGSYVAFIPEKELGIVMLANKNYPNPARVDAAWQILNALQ
Chain of Beta-lactamase TEM (P62593 whole entry): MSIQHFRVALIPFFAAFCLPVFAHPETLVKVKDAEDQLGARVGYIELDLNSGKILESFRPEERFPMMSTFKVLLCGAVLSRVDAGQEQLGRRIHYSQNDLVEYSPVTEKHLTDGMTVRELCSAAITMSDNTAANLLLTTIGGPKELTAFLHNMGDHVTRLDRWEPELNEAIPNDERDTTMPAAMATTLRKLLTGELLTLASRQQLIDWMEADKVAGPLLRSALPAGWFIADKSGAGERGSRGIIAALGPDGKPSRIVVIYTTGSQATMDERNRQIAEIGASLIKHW

Row | Compound | IC50 [1] [µM] | IC50 [2] [µM] | IC50 [3] [µM] | MIC [4] [µg/mL] | MIC [5] [µg/mL]
1 | CC1(C)[C@H](C(=O)O)N2C(=O)[C@@H](Cc3cn(CC(N)Cc4ccc(O)cc4)nn3)[C@H]2S1(=O)=O (some centres undefined) | 6.6 | 24 | 15 |  | 
2 | CC1(C)[C@H](C(=O)O)N2C(=O)C(C/C=C/C#N)[C@@H]2S1(=O)=O (some centres undefined) | > 100 | 3.1 | 24 |  | 
3 | CON(C)C(=O)/C=C/CC1C(=O)N2[C@@H](C(=O)O)C(C)(C)S(=O)(=O)[C@H]12 (some centres undefined) | 17 | > 100 |  |  | 
4 | CC1(C)[C@H](C(=O)O)N2C(=O)[C@@H](Cc3cn(-c4ccc(N)cc4)nn3)[C@H]2S1(=O)=O | 1.4 | 1.8 | 0.6 | 32 (≈ 78.9 µM) | 64 (≈ 158 µM)
5 | CC1(C)[C@H](C(=O)O)N2C(=O)[C@@H](Cc3cn(-c4ccccc4)nn3)[C@H]2S1(=O)=O | 3.4 | > 100 | 1 |  | 
6 | COC(=O)/C=C/CC1C(=O)N2[C@@H](C(=O)O)C(C)(C)S(=O)(=O)[C@@H]12 (some centres undefined) | 64 | 1.4 | 2.8 |  | 
7 | CC1(C)[C@H](C(=O)O)N2C(=O)[C@@H](Cc3cn(CC4CCCN4)nn3)[C@H]2S1(=O)=O (some centres undefined) | 5.2 | 22 | 7.9 |  | 
8 | CC1(C)[C@H](C(=O)O)N2C(=O)[C@@H](Cc3cn(-c4ccc(O)cc4)nn3)[C@H]2S1(=O)=O | 2.3 | 2.1 | 0.7 |  | 
9 | CC1(C)[C@H](C(=O)O)N2C(=O)C(C/C=C/C=O)[C@H]2S1(=O)=O (some centres undefined) | 17 | > 100 | 12 |  | 
10 | CC1(C)[C@H](C(=O)O)N2C(=O)[C@@H](Cc3cn(-c4ccc(F)cc4)nn3)[C@H]2S1(=O)=O | 3 | 4.1 | 1.6 |  | 
11 | CC(=O)/C=C/CC1C(=O)N2[C@@H](C(=O)O)C(C)(C)S(=O)(=O)[C@H]12 (some centres undefined) | 100 | 71 | 8.4 |  | 
12 | COC(=O)/C=C/CC1C(=O)N2[C@@H](C(=O)O)C(C)(C)S(=O)(=O)[C@H]12 (some centres undefined) | 29 | > 100 | 8.6 |  | 
13 | CC(=O)/C=C/CC1C(=O)N2[C@@H](C(=O)O)C(C)(C)S(=O)(=O)[C@@H]12 (some centres undefined) | 40 | 3 | 6.5 |  | 
14 | CCN1CCN(C(=O)N[C@@H](C(=O)N[C@@H]2C(=O)N3[C@@H]2SC(C)(C)[C@@H]3C(=O)O)c2ccccc2)C(=O)C1=O [PIPERACILLIN] |  |  |  | > 64 | > 64
15 | C[C@]1(Cn2ccnn2)[C@H](C(=O)O)N2C(=O)C[C@H]2S1(=O)=O [TAZOBACTAM] |  |  |  | 2 (≈ 6.66 µM) | 16 (≈ 53.3 µM)
